Test results as given in the supplement of paper PMC10307832.

Experiments:
Test in all cases: relative viability (nuclei count vs DMSO), 5 days (fraction); higher = more cells survive
Bexarotene + Alpelisib = compound: C=C(c1ccc(C(=O)O)cc1)c1cc2c(cc1C)C(C)(C)CCC2(C)C [Bexarotene] + Cc1nc(NC(=O)N2CCC[C@H]2C(N)=O)sc1-c1ccnc(C(C)(C)C(F)(F)F)c1 [Alpelisib] (partner 2 µM)
How it was run: (§1)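 After 5 days of treatment, lung cancer cells in 1536-well plates were fixed and stained in a single step (final 0.05% Triton X-100, 1% formaldehyde, 1 ug/ml Hoechst) and their nuclei counted on 4× images. Treatment had been applied by pin tool the day after seeding as one drug alone or as a fixed anchor-drug dose with five library-drug doses (not always all listed) in √10 steps. Relative viability is the nuclei count of treated wells divided by that of vehicle wells, and values are medians of duplicate plates.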

Bexarotene + Lapatinib = compound: C=C(c1ccc(C(=O)O)cc1)c1cc2c(cc1C)C(C)(C)CCC2(C)C [Bexarotene] + CS(=O)(=O)CCNCc1ccc(-c2ccc3ncnc(Nc4ccc(OCc5cccc(F)c5)c(Cl)c4)c3c2)o1 [Lapatinib] (partner 2 µM)
How it was run: as §1

Bexarotene + Linsitinib = compound: C=C(c1ccc(C(=O)O)cc1)c1cc2c(cc1C)C(C)(C)CCC2(C)C [Bexarotene] + C[C@]1(O)C[C@@H](c2nc(-c3ccc4ccc(-c5ccccc5)nc4c3)c3c(N)nccn32)C1 [Linsitinib] (partner 1 µM)
How it was run: as §1

Bexarotene + OSI-027 = compound: C=C(c1ccc(C(=O)O)cc1)c1cc2c(cc1C)C(C)(C)CCC2(C)C [Bexarotene] + COc1cccc2cc(-c3nc([C@H]4CC[C@H](C(=O)O)CC4)n4ncnc(N)c34)[nH]c12 [OSI-027] (partner 0.5 µM)
How it was run: as §1

| Cell Line | relative viability (Bexarotene + Alpelisib; first compound 0.08 µM) | relative viability (Bexarotene + Alpelisib; first compound 0.253 µM) | relative viability (Bexarotene + Alpelisib; first compound 0.8 µM) | relative viability (Bexarotene + Alpelisib; first compound 2.53 µM) | relative viability (Bexarotene + Alpelisib; first compound 8 µM) | relative viability (Bexarotene + Lapatinib; first compound 0.08 µM) | relative viability (Bexarotene + Lapatinib; first compound 0.253 µM) | relative viability (Bexarotene + Lapatinib; first compound 0.8 µM) | relative viability (Bexarotene + Lapatinib; first compound 2.53 µM) | relative viability (Bexarotene + Lapatinib; first compound 8 µM) | relative viability (Bexarotene + Linsitinib; first compound 0.08 µM) | relative viability (Bexarotene + Linsitinib; first compound 0.253 µM) | relative viability (Bexarotene + Linsitinib; first compound 0.8 µM) | relative viability (Bexarotene + Linsitinib; first compound 2.53 µM) | relative viability (Bexarotene + Linsitinib; first compound 8 µM) | relative viability (Bexarotene + OSI-027; first compound 0.08 µM) | relative viability (Bexarotene + OSI-027; first compound 0.253 µM) | relative viability (Bexarotene + OSI-027; first compound 0.8 µM) | relative viability (Bexarotene + OSI-027; first compound 2.53 µM) | relative viability (Bexarotene + OSI-027; first compound 8 µM) |
| --- | --- | --- | --- | --- | --- | --- | --- | --- | --- | --- | --- | --- | --- | --- | --- | --- | --- | --- | --- | --- |
| LK-2 | 1.15 | 1.12 | 1.12 | 1.25 | 1.15 | 1.33 | 1 | 1.04 | 0.968 | 0.961 | 0.513 | 0.713 | 0.692 | 0.705 | 0.773 | 0.262 | 0.207 | 0.237 | 0.202 | 0.255 |
| LOU-NH91 | 0.633 | 0.653 | 0.601 | 0.632 | 0.616 | 0.736 | 0.755 | 0.691 | 0.695 | 0.722 | 0.912 | 0.901 | 0.806 | 0.79 | 0.823 | 0.709 | 0.718 | 0.606 | 0.599 | 0.643 |
| LU99A | 0.592 | 0.57 | 0.535 | 0.475 | 0.61 | 1.12 | 0.917 | 0.929 | 0.99 | 1.03 | 0.616 | 0.504 | 0.477 | 0.518 | 0.653 | 0.325 | 0.361 | 0.286 | 0.316 | 0.315 |
| LXF-289 | 1.04 | 1.1 | 1.06 | 1.04 | 0.983 | 1 | 1.07 | 1.04 | 1.07 | 1.03 | 1.06 | 1.11 | 1.04 | 1.11 | 1.01 | 0.912 | 0.925 | 0.757 | 0.572 | 0.731 |
| NCI-H441 | 1.09 | 1.06 | 0.727 |  | 0.841 |  |  |  |  |  | 0.587 | 0.583 | 0.578 | 0.616 | 0.556 | 0.763 | 0.67 | 0.645 | 0.585 | 0.672 |
| NCI-H522 |  |  |  |  |  |  |  |  |  |  |  |  |  |  |  | 0.722 | 0.721 | 0.677 | 0.706 | 0.705 |
| NCI-H1299 | 1.05 | 1.13 | 1.12 | 1.05 | 1.05 | 1.02 | 1.03 | 1.04 | 0.917 | 0.964 | 1.02 | 1.01 | 0.991 | 1.02 | 0.94 |  |  |  |  |  |
| NCI-H1648 |  |  |  |  |  |  |  |  |  |  |  |  |  |  |  | 0.272 | 0.262 | 0.27 | 0.225 | 0.255 |
| NCI-H1650 |  |  |  |  |  | 0.813 | 0.707 | 0.871 | 0.659 | 0.745 |  |  |  |  |  | 0.612 | 0.734 | 0.598 | 0.726 | 0.622 |
| NCI-H1703 | 0.423 | 0.364 | 0.402 | 0.242 | 0.324 | 1.14 | 1.11 | 0.802 | 0.834 | 0.762 | 0.846 | 1.02 | 1.02 | 0.619 | 0.629 |  |  |  |  |  |
| NCI-H2170 | 0.762 | 0.777 | 0.782 | 0.759 | 0.66 | 0.264 | 0.245 | 0.275 | 0.305 | 0.273 |  |  |  |  |  | 0.699 | 0.757 | 0.636 | 0.683 | 0.604 |
| NCI-H2342 |  |  |  |  |  |  |  |  |  |  |  |  |  |  |  | 0.612 | 0.6 | 0.553 | 0.686 | 0.707 |
| SW 900 |  |  |  |  |  |  |  |  |  |  |  |  |  |  |  | 0.673 | 0.739 | 0.739 | 0.55 | 0.451 |
